Data on 20 compounds can be found in US20260137703A1, “2-AMINO-PYRIDO[2,3-D]PYRIMIDIN-7(8H)-ONE AND 7-AMINO-1-PYRIMIDO[4,5-D]PYRIMIDIN-2(1 H)-ONE DERIVATIVES AS EGFR INHIBITORS FOR THE TREATMENT OF CANCER” (Cancer Research Technology Limited, priority 2022, published 2026).

By IC50 is commonly meant the midpoint of a concentration-inhibition curve.

Experiment [1] addresses CtermHisTag-mEGFR Wild type (Homo sapiens, UniProt P00533). Nature of the experiment: biochemical.
Experiment [2] deals with T1, Phospho-EGFR (Tyr1068) in H1975 cells (Homo sapiens, UniProt P00533, L858R/T790M).
T1 construct: host or cells: H1975
Kind of experiment: HTRF pEGFR/total EGFR in H1975 cells. Particulars: ratio pEGFR/total EGFR, compound 3 hours. Type of experiment: cell-based. The gist of the method:
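Readout is the phospho-EGFR (Tyr1068) to total EGFR HTRF ratio, expressed relative to 0 μM control. Adhered H1975 cells were exposed to compound for 3 hours at 0.1% DMSO, duplicate wells, then lysed for 30 min at room temperature before two-wavelength fluorescence reading.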

The target in experiment [3] is T2, Phospho-EGFR (Tyr1068) in H1975 C797S cells (CRISPR-edited EGFR C797S) (Homo sapiens, UniProt P00533, C797S/L858R/T790M).
T2 construct: host or cells: H1975 C797S (CRISPR-edited)
Kind of experiment: HTRF pEGFR/total EGFR in H1975 C797S cells. Type of experiment: cell-based. The settings on record: ratio pEGFR/total EGFR, compound 3 hours. The gist of the method:
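Readout is the HTRF-measured Tyr1068 phospho-EGFR to total EGFR ratio, normalised to the 0 μM control as percent. Preceding this, CRISPR-edited H1975 C797S cells, plated 24 h earlier, were exposed 3 h to duplicate compound doses in medium with 0.1% DMSO, then lysed on a shaker.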
In general terms: TR-FRET usually uses a lanthanide donor and a delayed reading to cut background.

Experiment [4] concerns the target T3, Phospho-EGFR (Tyr1068) in A431 cells (Homo sapiens, UniProt P00533).
T3 construct: endogenous in cells; host or cells: A431
Kind of experiment: HTRF pEGFR/total EGFR in A431 cells with EGF stimulation. Format: cell-based. The settings on record: ratio pEGFR/total EGFR, compound 2.5 hours then 100 ng/ml EGF 30 mins. The gist of the method: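 Values are pEGFR(Tyr1068)/total EGFR HTRF ratios (665/620 nm) given as percent of the 0 μM control. Adhered A431 cells (20,000 per well, 24 h) had 2.5 h compound pretreatment in 0.1% DMSO, then 30 min of 100 ng/ml EGF before lysis.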

T3 sequence (P00533 25-1210): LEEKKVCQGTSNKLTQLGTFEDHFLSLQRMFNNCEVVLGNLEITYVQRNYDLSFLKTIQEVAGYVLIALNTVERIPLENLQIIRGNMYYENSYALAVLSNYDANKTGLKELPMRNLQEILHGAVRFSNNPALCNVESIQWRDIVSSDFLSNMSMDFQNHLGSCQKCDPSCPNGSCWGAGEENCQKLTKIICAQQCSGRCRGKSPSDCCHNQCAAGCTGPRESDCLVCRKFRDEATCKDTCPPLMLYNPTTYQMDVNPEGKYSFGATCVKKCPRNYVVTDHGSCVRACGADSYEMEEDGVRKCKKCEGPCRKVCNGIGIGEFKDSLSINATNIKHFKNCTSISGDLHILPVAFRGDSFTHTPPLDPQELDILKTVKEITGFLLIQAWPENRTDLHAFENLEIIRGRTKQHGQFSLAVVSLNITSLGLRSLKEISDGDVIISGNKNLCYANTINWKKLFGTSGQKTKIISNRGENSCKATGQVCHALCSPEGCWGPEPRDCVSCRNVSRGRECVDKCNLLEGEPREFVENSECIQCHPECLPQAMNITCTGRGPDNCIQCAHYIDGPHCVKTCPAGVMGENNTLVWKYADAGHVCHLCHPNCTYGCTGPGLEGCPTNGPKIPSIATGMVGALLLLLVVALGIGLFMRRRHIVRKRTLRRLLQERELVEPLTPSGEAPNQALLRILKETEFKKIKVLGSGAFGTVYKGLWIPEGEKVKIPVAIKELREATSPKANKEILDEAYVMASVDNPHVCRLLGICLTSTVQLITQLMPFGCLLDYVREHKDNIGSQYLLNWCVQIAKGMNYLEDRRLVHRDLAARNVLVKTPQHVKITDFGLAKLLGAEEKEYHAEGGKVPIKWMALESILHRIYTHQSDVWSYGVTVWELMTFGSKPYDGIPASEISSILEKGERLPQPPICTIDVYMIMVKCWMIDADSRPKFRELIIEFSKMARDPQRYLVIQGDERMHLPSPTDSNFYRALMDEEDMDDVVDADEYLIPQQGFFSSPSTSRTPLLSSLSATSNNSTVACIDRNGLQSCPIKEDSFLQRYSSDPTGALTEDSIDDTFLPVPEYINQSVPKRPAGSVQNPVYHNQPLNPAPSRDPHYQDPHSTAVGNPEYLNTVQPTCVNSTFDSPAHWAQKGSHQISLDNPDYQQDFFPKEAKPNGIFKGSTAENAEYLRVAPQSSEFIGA
T2 sequence (P00533 25-1210 T790M/C797S/L858R): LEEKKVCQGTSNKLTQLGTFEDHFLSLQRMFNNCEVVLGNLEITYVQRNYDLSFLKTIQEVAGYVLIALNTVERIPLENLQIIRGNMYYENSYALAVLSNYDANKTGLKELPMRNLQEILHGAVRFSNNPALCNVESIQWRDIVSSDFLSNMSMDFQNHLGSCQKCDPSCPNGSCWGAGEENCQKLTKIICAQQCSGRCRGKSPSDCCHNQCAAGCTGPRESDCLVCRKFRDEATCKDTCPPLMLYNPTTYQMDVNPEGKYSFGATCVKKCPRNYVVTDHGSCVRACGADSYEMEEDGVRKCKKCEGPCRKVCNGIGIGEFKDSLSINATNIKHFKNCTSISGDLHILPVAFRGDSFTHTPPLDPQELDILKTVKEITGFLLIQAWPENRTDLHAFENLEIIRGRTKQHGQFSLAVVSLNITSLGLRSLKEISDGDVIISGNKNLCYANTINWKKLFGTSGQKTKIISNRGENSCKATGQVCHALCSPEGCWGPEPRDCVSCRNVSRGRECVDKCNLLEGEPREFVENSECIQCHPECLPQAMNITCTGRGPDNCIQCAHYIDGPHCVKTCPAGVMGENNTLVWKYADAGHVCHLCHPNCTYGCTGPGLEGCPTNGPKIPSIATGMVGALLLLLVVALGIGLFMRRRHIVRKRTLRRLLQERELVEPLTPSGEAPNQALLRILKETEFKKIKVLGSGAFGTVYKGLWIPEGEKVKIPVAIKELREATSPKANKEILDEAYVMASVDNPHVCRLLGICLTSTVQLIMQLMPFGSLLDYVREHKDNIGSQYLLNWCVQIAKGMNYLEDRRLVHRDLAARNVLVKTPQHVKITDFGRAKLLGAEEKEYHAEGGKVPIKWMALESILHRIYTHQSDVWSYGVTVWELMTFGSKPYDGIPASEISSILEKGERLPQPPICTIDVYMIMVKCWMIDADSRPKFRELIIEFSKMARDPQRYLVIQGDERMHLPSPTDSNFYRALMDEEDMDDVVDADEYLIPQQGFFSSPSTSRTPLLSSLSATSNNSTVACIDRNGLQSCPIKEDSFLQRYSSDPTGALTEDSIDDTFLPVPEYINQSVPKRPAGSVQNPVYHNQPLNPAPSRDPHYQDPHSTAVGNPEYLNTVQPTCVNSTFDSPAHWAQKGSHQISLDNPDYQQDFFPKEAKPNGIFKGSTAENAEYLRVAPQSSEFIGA
CtermHisTag-mEGFR Wild type, sequence (P00533 whole entry): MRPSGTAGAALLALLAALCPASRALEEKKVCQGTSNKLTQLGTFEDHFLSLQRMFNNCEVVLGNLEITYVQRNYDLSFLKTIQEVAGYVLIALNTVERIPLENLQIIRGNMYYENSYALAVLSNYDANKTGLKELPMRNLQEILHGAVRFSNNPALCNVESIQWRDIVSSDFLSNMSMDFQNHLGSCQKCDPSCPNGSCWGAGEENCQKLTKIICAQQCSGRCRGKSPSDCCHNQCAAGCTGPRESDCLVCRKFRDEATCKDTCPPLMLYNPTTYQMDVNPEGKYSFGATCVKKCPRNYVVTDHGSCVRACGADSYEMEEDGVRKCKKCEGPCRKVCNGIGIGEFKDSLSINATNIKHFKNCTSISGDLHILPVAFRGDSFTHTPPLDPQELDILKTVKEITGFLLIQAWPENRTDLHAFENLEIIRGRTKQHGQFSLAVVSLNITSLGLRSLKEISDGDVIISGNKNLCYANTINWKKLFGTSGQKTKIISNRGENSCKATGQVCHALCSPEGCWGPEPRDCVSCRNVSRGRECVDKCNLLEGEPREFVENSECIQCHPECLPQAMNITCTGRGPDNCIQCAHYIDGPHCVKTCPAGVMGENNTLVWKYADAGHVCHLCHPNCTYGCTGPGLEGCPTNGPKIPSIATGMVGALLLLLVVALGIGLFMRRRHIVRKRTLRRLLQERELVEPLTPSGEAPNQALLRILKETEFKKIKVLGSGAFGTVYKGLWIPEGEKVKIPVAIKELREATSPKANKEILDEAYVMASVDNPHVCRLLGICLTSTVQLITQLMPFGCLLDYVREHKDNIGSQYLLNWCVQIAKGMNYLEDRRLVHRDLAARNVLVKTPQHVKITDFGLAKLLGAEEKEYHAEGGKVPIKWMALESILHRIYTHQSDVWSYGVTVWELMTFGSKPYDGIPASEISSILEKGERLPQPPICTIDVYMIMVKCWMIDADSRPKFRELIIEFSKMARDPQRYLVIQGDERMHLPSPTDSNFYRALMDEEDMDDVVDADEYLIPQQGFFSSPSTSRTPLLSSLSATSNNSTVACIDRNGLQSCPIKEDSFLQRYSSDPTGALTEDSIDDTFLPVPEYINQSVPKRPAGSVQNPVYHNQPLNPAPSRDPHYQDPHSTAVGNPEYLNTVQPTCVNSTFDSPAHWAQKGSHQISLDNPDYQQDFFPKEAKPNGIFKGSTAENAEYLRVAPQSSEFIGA
T1 sequence (P00533 25-1210 T790M/L858R): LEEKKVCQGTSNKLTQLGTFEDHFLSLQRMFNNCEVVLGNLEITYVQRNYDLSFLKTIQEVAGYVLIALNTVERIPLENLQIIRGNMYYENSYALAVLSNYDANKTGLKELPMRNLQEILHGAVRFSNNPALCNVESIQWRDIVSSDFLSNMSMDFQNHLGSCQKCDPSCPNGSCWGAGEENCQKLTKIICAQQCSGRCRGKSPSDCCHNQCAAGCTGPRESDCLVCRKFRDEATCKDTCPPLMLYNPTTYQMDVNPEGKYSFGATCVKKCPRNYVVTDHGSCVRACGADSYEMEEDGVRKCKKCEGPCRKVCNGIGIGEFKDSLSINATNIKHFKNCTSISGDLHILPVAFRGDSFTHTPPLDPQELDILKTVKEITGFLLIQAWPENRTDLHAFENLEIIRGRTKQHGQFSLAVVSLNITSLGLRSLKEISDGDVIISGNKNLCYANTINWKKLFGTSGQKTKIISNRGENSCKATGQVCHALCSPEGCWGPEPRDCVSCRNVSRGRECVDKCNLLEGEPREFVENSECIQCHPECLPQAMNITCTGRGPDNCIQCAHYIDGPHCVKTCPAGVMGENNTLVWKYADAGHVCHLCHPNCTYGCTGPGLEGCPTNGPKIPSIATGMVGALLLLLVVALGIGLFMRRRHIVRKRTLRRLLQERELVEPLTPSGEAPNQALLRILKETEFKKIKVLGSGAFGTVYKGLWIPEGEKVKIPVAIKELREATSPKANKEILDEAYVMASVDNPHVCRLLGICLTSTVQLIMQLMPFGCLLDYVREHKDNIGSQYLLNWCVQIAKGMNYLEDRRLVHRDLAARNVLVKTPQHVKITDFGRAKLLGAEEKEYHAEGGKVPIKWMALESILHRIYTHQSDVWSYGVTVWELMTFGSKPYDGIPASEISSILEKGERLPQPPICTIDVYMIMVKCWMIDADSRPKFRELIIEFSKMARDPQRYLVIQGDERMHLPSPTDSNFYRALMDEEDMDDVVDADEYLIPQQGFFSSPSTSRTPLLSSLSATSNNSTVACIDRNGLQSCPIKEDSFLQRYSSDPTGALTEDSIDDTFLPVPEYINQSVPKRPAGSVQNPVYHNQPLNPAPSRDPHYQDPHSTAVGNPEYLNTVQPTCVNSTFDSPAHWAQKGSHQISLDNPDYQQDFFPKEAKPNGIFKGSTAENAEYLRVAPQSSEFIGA

Regarding `C#Cc1cc(=O)n([C@H]2CC[C@@H](NC(=O)CC)CC2)c2nc(Nc3ccc(N4CCN(C)CC4)cc3)ncc12` [Example 81, N-[(1s,4s)-4-(5-Ethynyl-2-{[4-(4-methylpiperazin-1-yl)phenyl]amino}-7-oxopyrido[2,3-d]pyrimidin-8-yl)cyclohexyl]propanamide], the IC50 is under 1000 nM in experiment [1], under 500 nM in experiment [2], under 500 nM in experiment [3] and over 3000 nM in experiment [4].

As for `C#Cc1cc(=O)n2c3nc(ncc13)Nc1ccc(N3CCN(C)CC3)c(c1)OCCOCC2` [Example 232, 1^5-Ethynyl-3^4-(4-Methylpiperazin-1-yl)-1^7,1^8-dihydro-4,7-dioxa-2-aza-1(2,8)-pyrido[2,3-d]pyrimidina-3(1,3)-benzenacyclononaphan-1^7-one], the IC50 is under 1000 nM in experiment [1], under 500 nM in experiment [2], under 500 nM in experiment [3] and over 3000 nM in experiment [4].

As for `C#Cc1cc(=O)n(-c2ccccc2)c2nc(Nc3ccc(N4CCCNCC4)cc3)ncc12` [Example 20, 2-{[4-(1,4-Diazepan-1-yl)phenyl]amino}-5-ethynyl-8-phenylpyrido[2,3-d]pyrimidin-7-one], the IC50 was under 1000 nM in experiment [1], under 500 nM in experiment [2], under 500 nM in experiment [3] and 1000 to 3000 nM in experiment [4].

Take `C#Cc1cc(=O)n(-c2ccccc2)c2nc(Nc3ccc(N(C)C(=O)CN(C)C)cc3OC)ncc12` [Example 7, 2-(Dimethylamino)-N-(4-((5-ethynyl-7-oxo-8-phenyl-7,8-dihydropyrido[2,3-d]pyrimidin-2-yl)amino)-3-methoxyphenyl)-N-methylacetamide]: the IC50 was 1000 to 10000 nM in experiment [1], 1000 to 3000 nM in experiment [2], 1000 to 3000 nM in experiment [3] and over 3000 nM in experiment [4].

As to `C#Cc1cc(=O)n(-c2ccc(NC(C)=O)cc2)c2nc(Nc3ccccc3OC)ncc12` [Example 62, N-(4-(5-Ethynyl-2-((2-methoxyphenyl)amino)-7-oxopyrido[2,3-d]pyrimidin-8(7H)-yl)phenyl)acetamide], the IC50 in experiment [1] is 1000 to 10000 nM; in experiment [2], over 3000 nM; in experiment [3], over 3000 nM; in experiment [4], over 3000 nM.

For the compound `C#Cc1c(C)c(=O)n(Cc2ccn(C)n2)c2nc(Nc3ccc(N4CCN(C)CC4)cc3)ncc12` [Example 110, 5-ethynyl-6-methyl-2-{[4-(4-methylpiperazin-1-yl)phenyl]amino}-8-[(1-methylpyrazol-3-yl)methyl]pyrido[2,3-d]pyrimidin-7-one], the IC50 in experiment [1] is under 1000 nM; in experiment [2], 500 to 1000 nM; in experiment [3] it was 1000 to 3000 nM; in experiment [4], 1000 to 3000 nM.

`C#Cc1cc(=O)n(-c2ccccc2)c2nc(Nc3ccc(N4CCC(N5CC(F)(CO)C5)CC4)cc3)ncc12` [Example 30, 5-Ethynyl-2-[(4-{4-[3-fluoro-3-(hydroxymethyl)azetidin-1-yl]piperidin-1-yl}phenyl)amino]-8-phenylpyrido[2,3-d]pyrimidin-7-one]: the IC50 was under 1000 nM in experiment [1], under 500 nM in experiment [2], under 500 nM in experiment [3] and over 3000 nM in experiment [4].

Take `C#Cc1cc(=O)n(Cc2ccn(C)n2)c2nc(Nc3ccc(N4CCN(C)CC4)c(OCCC4CCCC4)c3)ncc12` [Example 210, 2-((3-(2-Cyclopentylethoxy)-4-(4-methylpiperazin-1-yl)phenyl)amino)-5-ethynyl-8-((1-methyl-1H-pyrazol-3-yl)methyl)pyrido[2,3-d]pyrimidin-7(8H)-one]: the IC50 in experiment [1] was under 1000 nM; in experiment [2] it was under 500 nM; in experiment [3], under 500 nM; in experiment [4] it was over 3000 nM.

Consider `C#Cc1cc(=O)n(-c2ccccc2)c2nc(Nc3ccc(N(C)CCCN(C)C)cc3)ncc12` [Example 9, 2-((4-((3-(Dimethylamino)propyl)(methyl)amino)phenyl)amino)-5-ethynyl-8-phenylpyrido[2,3-d]pyrimidin-7(8H)-one], for which the IC50 in experiment [1] is under 1000 nM; in experiment [2], under 500 nM; in experiment [3] it was under 500 nM; in experiment [4] it was over 3000 nM.

With `C#Cc1cc(=O)n(-c2ccccc2)c2nc(Nc3ccc(N4CCOCC4)cc3)ncc12` [Example 6, 5-Ethynyl-2-((4-morpholinophenyl)amino)-8-phenylpyrido[2,3-d]pyrimidin-7(8H)-one], the IC50 in experiment [1] is under 1000 nM; in experiment [2], under 500 nM; in experiment [3], under 500 nM; in experiment [4], 1000 to 3000 nM.

For `C#Cc1cc(=O)n(-c2ccc([N+](=O)[O-])cc2)c2nc(Nc3ccccc3OC)ncc12` [Example 60, 5-Ethynyl-2-((2-methoxyphenyl)amino)-8-(4-nitrophenyl)pyrido[2,3-d]pyrimidin-7(8H)-one], the IC50 in experiment [1] is 1000 to 10000 nM; in experiment [2], over 3000 nM; in experiment [3], over 3000 nM; in experiment [4], over 3000 nM.

As for `C#Cc1c(C)c(=O)n(Cc2ccn[nH]2)c2nc(Nc3ccc(N4CCN(C)CC4)cc3)ncc12` [Example 109, 5-ethynyl-6-methyl-2-{[4-(4-methylpiperazin-1-yl)phenyl]amino}-8-(2H-pyrazol-3-ylmethyl)pyrido[2,3-d]pyrimidin-7-one], the IC50 in experiment [1] lay within 1000 to 10000 nM; in experiment [2], 1000 to 3000 nM; in experiment [3], 1000 to 3000 nM; in experiment [4], 1000 to 3000 nM.

`C#Cc1cc(=O)n(C)c2nc(Nc3ccc(N(C)CCN(C)C)c(-c4cnn(C)c4)c3)ncc12` [Example 47, 2-[(4-{[2-(Dimethylamino)ethyl](methyl)amino}-3-(1-methylpyrazol-4-yl)phenyl)amino]-5-ethynyl-8-methylpyrido[2,3-d]pyrimidin-7-one]: the IC50 in experiment [1] was under 1000 nM; in experiment [2], under 500 nM; in experiment [3], 500 to 1000 nM; in experiment [4], over 3000 nM.

Take `C#Cc1cc(=O)n(-c2ccccc2)c2nc(Nc3ccc(N4CCC(N5CC(N(C)C)C5)CC4)cc3)ncc12` [Example 29, 2-[(4-{4-[3-(Dimethylamino)azetidin-1-yl]piperidin-1-yl}phenyl)amino]-5-ethynyl-8-phenylpyrido[2,3-d]pyrimidin-7-one]: the IC50 in experiment [1] was under 1000 nM; in experiment [2], under 500 nM; in experiment [3] it was under 500 nM; in experiment [4], over 3000 nM.

Take `C#Cc1cc(=O)n2c3nc(ncc13)Nc1cccc(c1)OC/C=C\C2` [Example 187, (Z)-1^5-ethynyl-1^7,1^8-dihydro-4-oxa-2-aza-1(2,8)-pyrido[2,3-d]pyrimidina-3(1,3)-benzenacyclooctaphan-6-en-1^7-one]: the IC50 in experiment [1] was 1000 to 10000 nM; in experiment [2] it was under 500 nM; in experiment [3], 500 to 1000 nM; in experiment [4], over 3000 nM.

Regarding `C#Cc1c(C)c(=O)n([C@H]2CC[C@@H](NC(C)=O)CC2)c2nc(Nc3ccc(N4CCN(C)CC4)cc3)ncc12` [Example 103, N-[(1s,4s)-4-(5-ethynyl-6-methyl-2-{[4-(4-methylpiperazin-1-yl)phenyl]amino}-7-oxopyrido[2,3-d]pyrimidin-8-yl)cyclohexyl]acetamide], the IC50 in experiment [1] lay in the range of 1000 to 10000 nM; in experiment [2], 1000 to 3000 nM; in experiment [3], 1000 to 3000 nM; in experiment [4], 1000 to 3000 nM.

`C#Cc1cc(=O)n(C)c2nc(Nc3ccc(N4CCN(C)CC4)c(NC(=O)CC)c3)ncc12` [Example 51, N-[5-({5-Ethynyl-8-methyl-7-oxopyrido[2,3-d]pyrimidin-2-yl}amino)-2-(4-methylpiperazin-1-yl)phenyl]propanamide]: the IC50 was under 1000 nM in experiment [1], under 500 nM in experiment [2], under 500 nM in experiment [3] and 1000 to 3000 nM in experiment [4].

On to `C#Cc1cc(=O)n(C)c2nc(Nc3ccc(N4CCN(C)CC4)c(OCCCC4CCCC4)c3)ncc12` [Example 212, 2-((3-(3-Cyclopentylpropoxy)-4-(4-methylpiperazin-1-yl)phenyl)amino)-5-ethynyl-8-methylpyrido[2,3-d]pyrimidin-7(8H)-one], for which the IC50 in experiment [1] was under 1000 nM; in experiment [2], under 500 nM; in experiment [3], under 500 nM; in experiment [4], over 3000 nM.

With `C#Cc1cc(=O)n2c3nc(ncc13)Nc1ccc(N3CCCN(C)CC3)c(c1)NC(=O)CCC2` [Example 238, 1^5-Ethynyl-3^4-(4-methyl-1,4-diazepan-1-yl)-1^7,1^8-dihydro-2,4-diaza-1(2,8)-pyrido[2,3-d]pyrimidina-3(1,3)-benzenacyclooctaphane-1^7,5-dione], the IC50 in experiment [1] is under 1000 nM; in experiment [2], under 500 nM; in experiment [3], under 500 nM; in experiment [4] it was over 3000 nM.

Turning to `C#Cc1cc(=O)n(C)c2nc(Nc3ccc(N(C)CCN(C)C)cc3)ncc12` [Example 43, 2-[(4-{[2-(Dimethylamino)ethyl](methyl)amino}phenyl)amino]-5-ethynyl-8-methylpyrido[2,3-d]pyrimidin-7-one], the IC50 in experiment [1] is 1000 to 10000 nM; in experiment [2], under 500 nM; in experiment [3], under 500 nM; in experiment [4], over 3000 nM.
